Results on two compounds are retold here after publication PMC4575644 (ACS chemical biology, 2015).

Holding throughout (format): cell-based
The target in one assay is T1, acid ceramidase (AC) (Rattus norvegicus, UniProt Q6P7S1).
T1 sequence (Q6P7S1 21-141): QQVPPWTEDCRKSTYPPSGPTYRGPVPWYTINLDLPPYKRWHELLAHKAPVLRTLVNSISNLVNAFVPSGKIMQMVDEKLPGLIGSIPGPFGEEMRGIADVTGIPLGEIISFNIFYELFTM
T1 sequence (Q6P7S1 142-394): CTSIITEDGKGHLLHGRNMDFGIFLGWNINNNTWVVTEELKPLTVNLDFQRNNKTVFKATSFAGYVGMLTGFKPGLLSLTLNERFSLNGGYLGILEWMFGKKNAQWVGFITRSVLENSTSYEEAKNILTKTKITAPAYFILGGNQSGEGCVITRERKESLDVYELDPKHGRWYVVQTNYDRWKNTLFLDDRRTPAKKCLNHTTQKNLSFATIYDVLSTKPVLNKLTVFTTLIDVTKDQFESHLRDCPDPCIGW
Nature of the assay: enzyme inhibition IC50.

Assay [1] has as its target T2, N-acylethanolamine acid amidase (rNAAA) (Rattus norvegicus, UniProt Q5KTC7).
T2 sequence (Q5KTC7 34-130): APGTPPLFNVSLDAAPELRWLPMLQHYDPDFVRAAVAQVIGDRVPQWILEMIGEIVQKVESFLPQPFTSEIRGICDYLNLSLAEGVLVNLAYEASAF
T2 sequence (Q5KTC7 131-362): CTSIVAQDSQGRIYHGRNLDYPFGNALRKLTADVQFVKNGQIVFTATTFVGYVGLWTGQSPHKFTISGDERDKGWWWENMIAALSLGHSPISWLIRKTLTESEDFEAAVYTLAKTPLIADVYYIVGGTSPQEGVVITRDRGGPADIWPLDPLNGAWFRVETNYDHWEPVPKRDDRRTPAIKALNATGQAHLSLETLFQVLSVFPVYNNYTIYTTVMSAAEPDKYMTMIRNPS
Briefly: enzyme inhibition IC50.

For assay [2], the target named is T3, N-acylethanolamine acid amidase (hNAAA) (Homo sapiens, UniProt Q02083).
T3 sequence (Q02083 29-125): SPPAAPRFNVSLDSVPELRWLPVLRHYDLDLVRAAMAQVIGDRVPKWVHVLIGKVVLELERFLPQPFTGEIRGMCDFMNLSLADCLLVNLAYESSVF
T3 sequence (Q02083 126-359): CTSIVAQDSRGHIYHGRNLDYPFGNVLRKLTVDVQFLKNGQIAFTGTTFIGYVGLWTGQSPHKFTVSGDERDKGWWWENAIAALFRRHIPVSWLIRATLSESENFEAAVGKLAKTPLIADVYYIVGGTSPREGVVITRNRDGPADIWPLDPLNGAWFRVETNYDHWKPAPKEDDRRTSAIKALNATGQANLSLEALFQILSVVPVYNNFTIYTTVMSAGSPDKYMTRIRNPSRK
Briefly: competitive ABPP against probe […] in intact NAAA-HEK293 cells.

With `C#CCCCCCCCCCOC(=O)N[C@H]1CNC1=O` [compound 1, undec-10-ynyl N-[(3S)-2-oxoazetidin-3-yl]carbamate], the IC50 (commonly the midpoint of a concentration-inhibition curve) was found to be 1200 nM on acid ceramidase (AC) and 13 nM in assay [1].
In the case of `C[C@@H]1OC(=O)[C@@H]1NC(=O)OCCCCCc1ccccc1` [ARN077, 5-phenylpentyl N-[(2S,3R)-2-methyl-4-oxo-oxetan-3-yl]carbamate], the “competitive ABPP against probe 1 in intact NAAA-HEK293 cells (40 μM)” value in assay [2] is given as “In either case, a decrease in signal intensity was observed, but a more pronounced masking of NAAA was noted”.
